Legend:
[1] = molecular target: recombinant poly(ADP-ribose) polymerase 2 (PARP2) (Homo sapiens, UniProt Q9UGN5); assay: PARP2 chemiluminescent assay; assay type: biochemical; details: PARP2 enzyme activity, chemiluminescence, 40 ng enzyme/well
[2] = molecular target: recombinant poly(ADP-ribose) polymerase 1 (PARP1) (Homo sapiens, UniProt P09874); assay: PARP1 chemiluminescent assay; assay type: biochemical; details: PARP1 enzyme activity, chemiluminescence, 40 ng enzyme/well
Protocol: The solution of recombinant poly(ADP-ribose) polymerase 1 and 2 (PARP1 and PARP2) (40 ng enzyme/well) and the compounds to be tested were mixed, respectively. The solutions were added to a 96-well plate coated with histone mixture, incubated at room temperature for 1 h, then 50 μL 0.3 ng/mL Streptavidin-HRP was added to each well. The plates were incubated for 30 minutes at room temperature. Finally, the plates were treated with streptavidin-HRP followed by addition of the ELISA ECL substrate to produce chemiluminescence that can be measured using a chemiluminescence reader. Inhibition of the tested compound to PARP1/2 enzyme activity was calculated according to the following formula. [formula] IC50 value is obtained by fitting the s-shaped dose response curve equation by using XL Fit software.

[3] = system: MDA-MB-436 cells; assay: Growth inhibition assay against BRCA mutant human breast cancer MDA-MB-436 cell line (CCK-8, 7 days); assay type: cell-based; details: 168 h, MDA-MB-436, 7 days, read-out: IC50 (nM), proliferation of human breast cancer cells MDA-MB-436
Outline: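 Seeded 3000 cells/well overnight, then exposed to test compound (0.10% DMSO control) for 7 days at 37 °C, 5% CO2, with compound-containing medium changed on day 4. CCK-8 added for 4 h; OD = A450 − A650. Survival % relative to DMSO after background subtraction, plotted against concentration for IC50.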

Chain of recombinant poly(ADP-ribose) polymerase 1 (PARP1) (P09874 whole entry): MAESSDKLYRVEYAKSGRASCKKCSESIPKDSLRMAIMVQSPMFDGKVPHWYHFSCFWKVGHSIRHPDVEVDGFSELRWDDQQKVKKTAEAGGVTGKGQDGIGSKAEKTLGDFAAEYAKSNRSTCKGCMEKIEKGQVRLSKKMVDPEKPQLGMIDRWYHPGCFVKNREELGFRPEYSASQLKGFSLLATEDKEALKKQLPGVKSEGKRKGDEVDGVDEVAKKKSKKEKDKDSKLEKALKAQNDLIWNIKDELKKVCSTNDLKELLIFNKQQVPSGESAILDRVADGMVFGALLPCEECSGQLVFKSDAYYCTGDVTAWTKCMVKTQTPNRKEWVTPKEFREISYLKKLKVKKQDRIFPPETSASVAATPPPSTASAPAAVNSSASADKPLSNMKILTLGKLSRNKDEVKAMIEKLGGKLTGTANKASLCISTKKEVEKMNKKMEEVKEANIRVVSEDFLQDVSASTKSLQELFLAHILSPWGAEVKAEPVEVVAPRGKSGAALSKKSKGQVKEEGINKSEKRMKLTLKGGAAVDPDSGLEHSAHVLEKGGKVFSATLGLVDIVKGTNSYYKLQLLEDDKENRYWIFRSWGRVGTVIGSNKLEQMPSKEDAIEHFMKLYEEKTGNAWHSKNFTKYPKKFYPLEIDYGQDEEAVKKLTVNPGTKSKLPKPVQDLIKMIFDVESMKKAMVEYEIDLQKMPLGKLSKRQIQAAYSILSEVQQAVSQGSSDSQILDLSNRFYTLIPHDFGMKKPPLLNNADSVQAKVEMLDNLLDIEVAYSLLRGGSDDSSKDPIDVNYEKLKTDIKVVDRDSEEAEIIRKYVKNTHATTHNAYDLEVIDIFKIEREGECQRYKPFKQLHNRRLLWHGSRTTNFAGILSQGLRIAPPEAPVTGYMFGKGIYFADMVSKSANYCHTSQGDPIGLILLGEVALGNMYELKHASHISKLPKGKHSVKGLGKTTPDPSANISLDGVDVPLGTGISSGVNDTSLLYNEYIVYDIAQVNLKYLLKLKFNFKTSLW
Chain of recombinant poly(ADP-ribose) polymerase 2 (PARP2) (Q9UGN5 whole entry): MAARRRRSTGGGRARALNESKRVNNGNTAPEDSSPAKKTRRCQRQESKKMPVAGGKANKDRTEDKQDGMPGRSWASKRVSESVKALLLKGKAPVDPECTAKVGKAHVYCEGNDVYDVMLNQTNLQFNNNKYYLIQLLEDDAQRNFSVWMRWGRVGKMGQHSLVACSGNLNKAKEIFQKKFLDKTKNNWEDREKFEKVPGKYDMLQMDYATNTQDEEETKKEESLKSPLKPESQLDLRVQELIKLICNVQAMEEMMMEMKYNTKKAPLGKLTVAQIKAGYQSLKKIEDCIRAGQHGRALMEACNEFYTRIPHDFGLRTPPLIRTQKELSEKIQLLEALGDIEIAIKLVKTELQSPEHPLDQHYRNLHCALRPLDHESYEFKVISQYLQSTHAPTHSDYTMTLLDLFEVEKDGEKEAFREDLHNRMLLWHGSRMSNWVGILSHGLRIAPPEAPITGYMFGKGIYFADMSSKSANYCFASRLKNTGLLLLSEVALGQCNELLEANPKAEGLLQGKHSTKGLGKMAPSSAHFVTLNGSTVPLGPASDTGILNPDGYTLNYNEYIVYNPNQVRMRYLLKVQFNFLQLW

IC50 [1]: 21 nM
IC50 [2]: 0.26 nM
IC50 [3]: 4.75 nM
Structure (SMILES): CNC(=O)c1ccc(-n2cc3c(n2)CN(Cc2ccc4c([nH]c(=O)c5c(C(F)(F)F)cnn54)c2F)C3)cn1 [Example 25, 5-(5-((6-fluoro-4-oxo-3-(trifluoromethyl)-4,5-dihydropyrazolo[1,5-a]quinoxalin-7-yl)methyl)-5,6-dihydropyrrolo[3,4-c]pyrazol-2(4H)-yl)-N-methylpicolinamide]

— patent publication US20260265256A1 (IMPACT THERAPEUTICS (SHANGHAI), INC., priority 2023, published 2026)
